Reference: the supplement of paper PMC11208160
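Also: IS621 bridge recombinase in Escherichia coli cells against a fixed T5 target plasmid.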

Assay: recombinant UMI read abundance after kanamycin selection (control-corrected) (log10(CPM+1)); higher = more efficient recombination; extreme values may be limits of the assay; sequences stand for … in AGTGCAGAGAAAATCGGCCAGTTTTCTCTGCCTGCAGTCCGCATGCCGTGGGACCCCTTGGGTTCTAACCTGTTGCCTAGATTTATGCAGCGGACTGCCTTTCTCCCAAAGTGATAAACCGG…AGGTTGGTTTCACT; site = the 11-nt donor
Procedure, shortened: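 Sequencing read counts were converted to CPM, averaged over two replicates and scaled by control-derived factors. Results are given as log10(CPM+1). The reads covered the donor–target junction of recombinant UMIs from a pooled Escherichia coli screen of donor and donor-binding-loop pairs for the IS621 bridge recombinase.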
For “GAGCCCACATGGACCGGTTTTCCCGGTAATCCGTATTTGAT (site GAGCGCACTAT)”, the “recombinant UMI read abundance (log10)” value was 0.0147. In the case of “GAGCCCACATGGACCGGTTTTCCCGGTAATCCGTATTTGAT (site GAGCTCACTAT)”, the “recombinant UMI read abundance (log10)” value is reported as 0.00621. For “GAGCGCGCATGGACCGGTTTTCCCGGTAATCCGTATTTGCG (site GAGCGCGCTCG)”, the “recombinant UMI read abundance (log10)” value was 1.56. With “GAGCTCACATGGACCGGTTTTCCCGGTAATCCGTATTTGGT (site GAGCTCACTAA)” the “recombinant UMI read abundance (log10)” value was 0.274. In the case of “GAGCTCACATGGACCGGTTTTCCCGGTAATCCGTATTTGGT (site GAGCTCACTAC)”, the “recombinant UMI read abundance (log10)” value is reported as 0.841. With “GAGCTCACATGGACCGGTTTTCCCGGTAATCCGTATTTGGT (site GAGCTCACTAG)” the “recombinant UMI read abundance (log10)” value was 1.37. With “GAGCTCACATGGACCGGTTTTCCCGGTAATCCGTATTTGGT (site GAGCTCACTAT)” the “recombinant UMI read abundance (log10)” value was 0.971. In the case of “GAGCTCGCATGGACCGGTTTTCCCGGTAATCCGTATTTGAT (site GAGCTCACTAT)”, the “recombinant UMI read abundance (log10)” value is reported as 1.7. For “GAGCTCGCATGGACCGGTTTTCCCGGTAATCCGTATTTGAT (site GAGCTCCCTAT)”, the “recombinant UMI read abundance (log10)” value was 0.626. For “GAGCTCGCATGGACCGGTTTTCCCGGTAATCCGTATTTGAT (site GAGCTCGCTAT)”, the “recombinant UMI read abundance (log10)” value was 2.26. For “GAGCTCGCATGGACCGGTTTTCCCGGTAATCCGTATTTGAT (site GAGCTCTCTAT)”, the “recombinant UMI read abundance (log10)” value was 1.37. With “GAGGAAACATGGACCGGTTTTCCCGGTAATCCGTATTTGCT (site GAGGAAACTAG)” the “recombinant UMI read abundance (log10)” value was 0. In the case of “GAGGAACCATGGACCGGTTTTCCCGGTAATCCGTATTTGGA (site GAGGAACCTTC)”, the “recombinant UMI read abundance (log10)” value is reported as 0.00548. For “GAGGATGCATGGACCGGTTTTCCCGGTAATCCGTATTTGAA (site GAGGATGCTTT)”, the “recombinant UMI read abundance (log10)” value was 2.56. With “GAGGTAGCATGGACCGGTTTTCCCGGTAATCCGTATTTGAT (site GAGGTAGCTAT)” the “recombinant UMI read abundance (log10)” value was 2.43. For “GAGTAGCCATGGACCGGTTTTCCCGGTAATCCGTATTTGTC (site GAGTAGCCTGA)”, the “recombinant UMI read abundance (log10)” value was 0. For “GAGTGGACATGGACCGGTTTTCCCGGTAATCCGTATTTGAC (site GAATGGACTGT)”, the “recombinant UMI read abundance (log10)” value was 1.75. With “GAGTGGACATGGACCGGTTTTCCCGGTAATCCGTATTTGAC (site GACTGGACTGT)” the “recombinant UMI read abundance (log10)” value was 0.208. With “GAGTGGACATGGACCGGTTTTCCCGGTAATCCGTATTTGAC (site GAGTGGACTGT)” the “recombinant UMI read abundance (log10)” value was 2.6. With “GAGTGGACATGGACCGGTTTTCCCGGTAATCCGTATTTGAC (site GATTGGACTGT)” the “recombinant UMI read abundance (log10)” value was 0. For “GATAAGCCATGGACCGGTTTTCCCGGTAATCCGTATTTGCC (site GATAAGCCTGG)”, the “recombinant UMI read abundance (log10)” value was 0. In the case of “GATACGTCATGGACCGGTTTTCCCGGTAATCCGTATTTGTT (site GATACGTCTAA)”, the “recombinant UMI read abundance (log10)” value is reported as 0.338. For “GATACGTCATGGACCGGTTTTCCCGGTAATCCGTATTTGTT (site GCTACGTCTAA)”, the “recombinant UMI read abundance (log10)” value was 0.00442. With “GATACGTCATGGACCGGTTTTCCCGGTAATCCGTATTTGTT (site GGTACGTCTAA)” the “recombinant UMI read abundance (log10)” value was 0.0473. For “GATACGTCATGGACCGGTTTTCCCGGTAATCCGTATTTGTT (site GTTACGTCTAA)”, the “recombinant UMI read abundance (log10)” value was 0.0167. For “GATAGATCATGGACCGGTTTTCCCGGTAATCCGTATTTGAG (site GATAGATCTCT)”, the “recombinant UMI read abundance (log10)” value was 1.83. With “GATCATCCATGGACCGGTTTTCCCGGTAATCCGTATTTGCT (site GATAATCCTAG)” the “recombinant UMI read abundance (log10)” value was 0. With “GATCATCCATGGACCGGTTTTCCCGGTAATCCGTATTTGCT (site GATCATCCTAG)” the “recombinant UMI read abundance (log10)” value was 0.452. For “GATCATCCATGGACCGGTTTTCCCGGTAATCCGTATTTGCT (site GATGATCCTAG)”, the “recombinant UMI read abundance (log10)” value was 0. For “GATCATCCATGGACCGGTTTTCCCGGTAATCCGTATTTGCT (site GATTATCCTAG)”, the “recombinant UMI read abundance (log10)” value was 0. With “GATCCAACATGGACCGGTTTTCCCGGTAATCCGTATTTGTA (site GATCCAACTTA)” the “recombinant UMI read abundance (log10)” value was 0.0155. For “GATCCAACATGGACCGGTTTTCCCGGTAATCCGTATTTGTA (site GCTCCAACTTA)”, the “recombinant UMI read abundance (log10)” value was 0.00727. With “GATCCAACATGGACCGGTTTTCCCGGTAATCCGTATTTGTA (site GGTCCAACTTA)” the “recombinant UMI read abundance (log10)” value was 0.021. With “GATCCAACATGGACCGGTTTTCCCGGTAATCCGTATTTGTA (site GTTCCAACTTA)” the “recombinant UMI read abundance (log10)” value was 0.0286. In the case of “GATCCGTCATGGACCGGTTTTCCCGGTAATCCGTATTTGTA (site GATCCGTCTTA)”, the “recombinant UMI read abundance (log10)” value is reported as 1.26. With “GATCGCTCATGGACCGGTTTTCCCGGTAATCCGTATTTGTT (site GATCGCTCTAA)” the “recombinant UMI read abundance (log10)” value was 0.523. With “GATCTGCCATGGACCGGTTTTCCCGGTAATCCGTATTTGAA (site GATCTGCCTTT)” the “recombinant UMI read abundance (log10)” value was 0.00302. In the case of “GATGAAACATGGACCGGTTTTCCCGGTAATCCGTATTTGCC (site GATGAAACTGG)”, the “recombinant UMI read abundance (log10)” value is reported as 1.72. For “GATGGGACATGGACCGGTTTTCCCGGTAATCCGTATTTGAC (site GATAGGACTGT)”, the “recombinant UMI read abundance (log10)” value was 1.69. In the case of “GATGGGACATGGACCGGTTTTCCCGGTAATCCGTATTTGAC (site GATCGGACTGT)”, the “recombinant UMI read abundance (log10)” value is reported as 0.285. In the case of “GATGGGACATGGACCGGTTTTCCCGGTAATCCGTATTTGAC (site GATGGGACTGT)”, the “recombinant UMI read abundance (log10)” value is reported as 2.75. With “GATGGGACATGGACCGGTTTTCCCGGTAATCCGTATTTGAC (site GATTGGACTGT)” the “recombinant UMI read abundance (log10)” value was 0. For “GATGTAACATGGACCGGTTTTCCCGGTAATCCGTATTTGCT (site AATGTAACTAG)”, the “recombinant UMI read abundance (log10)” value was 1.24. In the case of “GATGTAACATGGACCGGTTTTCCCGGTAATCCGTATTTGCT (site CATGTAACTAG)”, the “recombinant UMI read abundance (log10)” value is reported as 1.31. With “GATGTAACATGGACCGGTTTTCCCGGTAATCCGTATTTGCT (site GATGTAACTAG)” the “recombinant UMI read abundance (log10)” value was 1.83. In the case of “GATGTAACATGGACCGGTTTTCCCGGTAATCCGTATTTGCT (site TATGTAACTAG)”, the “recombinant UMI read abundance (log10)” value is reported as 1.83. With “GATGTATCATGGACCGGTTTTCCCGGTAATCCGTATTTGCA (site GATGTATCTTG)” the “recombinant UMI read abundance (log10)” value was 2.3. In the case of “GATGTTCCATGGACCGGTTTTCCCGGTAATCCGTATTTGGT (site GATGTTCCTAC)”, the “recombinant UMI read abundance (log10)” value is reported as 0.0188. With “GATGTTCCATGGACCGGTTTTCCCGGTAATCCGTATTTGGT (site GCTGTTCCTAC)” the “recombinant UMI read abundance (log10)” value was 0.00282. With “GATGTTCCATGGACCGGTTTTCCCGGTAATCCGTATTTGGT (site GGTGTTCCTAC)” the “recombinant UMI read abundance (log10)” value was 0. For “GATGTTCCATGGACCGGTTTTCCCGGTAATCCGTATTTGGT (site GTTGTTCCTAC)”, the “recombinant UMI read abundance (log10)” value was 0.00388. In the case of “GATTAGACATGGACCGGTTTTCCCGGTAATCCGTATTTGCT (site TTGCTCCCTGT)”, the “recombinant UMI read abundance (log10)” value is reported as 0. In the case of “GATTATCCATGGACCGGTTTTCCCGGTAATCCGTATTTGAT (site GATTATCCTAA)”, the “recombinant UMI read abundance (log10)” value is reported as 0.0183. For “GATTATCCATGGACCGGTTTTCCCGGTAATCCGTATTTGAT (site GATTATCCTAC)”, the “recombinant UMI read abundance (log10)” value was 0.0054. In the case of “GATTATCCATGGACCGGTTTTCCCGGTAATCCGTATTTGAT (site GATTATCCTAG)”, the “recombinant UMI read abundance (log10)” value is reported as 0. For “GATTATCCATGGACCGGTTTTCCCGGTAATCCGTATTTGAT (site GATTATCCTAT)”, the “recombinant UMI read abundance (log10)” value was 0. In the case of “GATTATCCATGGACCGGTTTTCCCGGTAATCCGTATTTGGT (site GATTATCCTAA)”, the “recombinant UMI read abundance (log10)” value is reported as 0.017. With “GATTATCCATGGACCGGTTTTCCCGGTAATCCGTATTTGGT (site GATTATCCTAC)” the “recombinant UMI read abundance (log10)” value was 0.0163. For “GATTATCCATGGACCGGTTTTCCCGGTAATCCGTATTTGGT (site GATTATCCTAG)”, the “recombinant UMI read abundance (log10)” value was 0. In the case of “GATTATCCATGGACCGGTTTTCCCGGTAATCCGTATTTGGT (site GATTATCCTAT)”, the “recombinant UMI read abundance (log10)” value is reported as 0. For “GATTATCCATGGACCGGTTTTCCCGGTAATCCGTATTTGTT (site GATTATCCTAA)”, the “recombinant UMI read abundance (log10)” value was 0.00783. In the case of “GATTATCCATGGACCGGTTTTCCCGGTAATCCGTATTTGTT (site GATTATCCTAC)”, the “recombinant UMI read abundance (log10)” value is reported as 0. In the case of “GATTATCCATGGACCGGTTTTCCCGGTAATCCGTATTTGTT (site GATTATCCTAG)”, the “recombinant UMI read abundance (log10)” value is reported as 0. With “GATTATCCATGGACCGGTTTTCCCGGTAATCCGTATTTGTT (site GATTATCCTAT)” the “recombinant UMI read abundance (log10)” value was 0. For “GATTGAACATGGACCGGTTTTCCCGGTAATCCGTATTTGAC (site GATTGAACTGT)”, the “recombinant UMI read abundance (log10)” value was 0. For “GATTGAACATGGACCGGTTTTCCCGGTAATCCGTATTTGAC (site GATTGCACTGT)”, the “recombinant UMI read abundance (log10)” value was 0.00522. With “GATTGAACATGGACCGGTTTTCCCGGTAATCCGTATTTGAC (site GATTGGACTGT)” the “recombinant UMI read abundance (log10)” value was 0.339. In the case of “GATTGAACATGGACCGGTTTTCCCGGTAATCCGTATTTGAC (site GATTGTACTGT)”, the “recombinant UMI read abundance (log10)” value is reported as 0. In the case of “GATTGTACATGGACCGGTTTTCCCGGTAATCCGTATTTGCG (site GATTGTACTCG)”, the “recombinant UMI read abundance (log10)” value is reported as 0.619. In the case of “GATTGTACATGGACCGGTTTTCCCGGTAATCCGTATTTGGG (site GATTGTACTCC)”, the “recombinant UMI read abundance (log10)” value is reported as 0.0205. In the case of “GATTGTCCATGGACCGGTTTTCCCGGTAATCCGTATTTGAT (site GATTGTCCTAT)”, the “recombinant UMI read abundance (log10)” value is reported as 1.17. In the case of “GATTTTCCATGGACCGGTTTTCCCGGTAATCCGTATTTGCT (site GATTATCCTAG)”, the “recombinant UMI read abundance (log10)” value is reported as 0. In the case of “GATTTTCCATGGACCGGTTTTCCCGGTAATCCGTATTTGCT (site GATTCTCCTAG)”, the “recombinant UMI read abundance (log10)” value is reported as 0. In the case of “GATTTTCCATGGACCGGTTTTCCCGGTAATCCGTATTTGCT (site GATTGTCCTAG)”, the “recombinant UMI read abundance (log10)” value is reported as 0.014. With “GATTTTCCATGGACCGGTTTTCCCGGTAATCCGTATTTGCT (site GATTTTCCTAG)” the “recombinant UMI read abundance (log10)” value was 0.
